How the values were obtained:
[1] = molecular target: T1, L858R/T790M/C797S EGFR (Homo sapiens, UniProt P00533, C797S/L858R/T790M); assay: EGFR degradation HTRF assay in H1975-clone #25 (LTC) cells; format: cell-based; settings: 16h treatment; for DC50: H1975 # 25-LTC (L858R/T790M/C797S), HTRF; for Dmax: NCI-H1975, H1975 # 25-LTC (L858R/T790M/C797S), maximum percentage of degradation
T1 construct: expressed in transfected cells; host or cells: H1975 clone #25 (lentiviral over-expression, endogenous EGFR knocked out by sgRNA)
How it was run: (§1)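 H1975 clones stably overexpressing mutant EGFR by lentivirus, with endogenous EGFR knocked out by sgRNA and homozygosity confirmed by sequencing, were treated 16 h at 37 °C with compounds in 0.2% DMSO medium, 8 doses from 10 uM in 5-fold dilution. Lysates were read by HTRF (665/620 nm); DC50 came from a four-parameter fit.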

[2] = tested on: Del19/T790M/C797S EGFR; assay: EGFR degradation HTRF assay in H1975-clone #28 (DTC) cells; format: cell-based; settings: H1975 # 28 DTC (Del19/T790M/C797S), 16h treatment; for DC50: HTRF; for Dmax (%): maximum percentage of degradation
How it was run: as §1

T1 sequence (P00533 25-1210 T790M/C797S/L858R): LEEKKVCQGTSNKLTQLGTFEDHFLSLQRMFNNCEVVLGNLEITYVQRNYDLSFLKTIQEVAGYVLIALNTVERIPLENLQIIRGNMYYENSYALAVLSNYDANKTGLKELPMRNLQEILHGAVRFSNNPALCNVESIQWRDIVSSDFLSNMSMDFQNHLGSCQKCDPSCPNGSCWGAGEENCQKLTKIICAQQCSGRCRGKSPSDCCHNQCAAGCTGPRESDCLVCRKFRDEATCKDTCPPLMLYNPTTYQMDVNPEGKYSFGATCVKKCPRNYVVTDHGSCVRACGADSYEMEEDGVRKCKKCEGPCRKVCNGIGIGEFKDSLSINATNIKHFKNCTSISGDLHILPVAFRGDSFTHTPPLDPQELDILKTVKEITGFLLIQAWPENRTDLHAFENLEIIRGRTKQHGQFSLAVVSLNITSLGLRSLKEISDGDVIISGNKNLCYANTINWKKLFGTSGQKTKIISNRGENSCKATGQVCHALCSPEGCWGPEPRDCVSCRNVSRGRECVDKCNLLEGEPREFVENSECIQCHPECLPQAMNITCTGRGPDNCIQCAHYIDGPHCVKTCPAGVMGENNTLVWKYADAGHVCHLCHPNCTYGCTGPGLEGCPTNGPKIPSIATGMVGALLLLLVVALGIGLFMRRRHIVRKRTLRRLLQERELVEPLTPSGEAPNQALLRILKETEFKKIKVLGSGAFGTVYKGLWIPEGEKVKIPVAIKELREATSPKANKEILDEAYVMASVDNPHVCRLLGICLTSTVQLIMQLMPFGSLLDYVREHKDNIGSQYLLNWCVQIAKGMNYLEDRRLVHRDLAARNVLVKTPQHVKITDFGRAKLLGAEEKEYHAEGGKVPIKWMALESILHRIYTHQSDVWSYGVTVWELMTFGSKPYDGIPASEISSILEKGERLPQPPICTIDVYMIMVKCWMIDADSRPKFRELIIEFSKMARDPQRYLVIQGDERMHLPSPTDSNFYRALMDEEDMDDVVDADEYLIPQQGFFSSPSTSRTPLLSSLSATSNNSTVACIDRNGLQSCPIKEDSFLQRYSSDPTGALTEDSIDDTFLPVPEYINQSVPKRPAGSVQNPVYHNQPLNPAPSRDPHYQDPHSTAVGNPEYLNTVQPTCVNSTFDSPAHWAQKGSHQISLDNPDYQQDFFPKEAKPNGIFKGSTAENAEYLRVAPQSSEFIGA

SMILES | DC50 [1] [nM] | Dmax [1] [%] | DC50 [2] [nM] | Dmax (%) [2] [%]
CO[C@@H]1CN(CCc2cc(F)c([C@H]3CCC(=O)NC3=O)c(F)c2)CC[C@@H]1N(C)C(=O)c1ccc2c(c1)N1C[C@H](C)CCCOc3c(cnn3C)-c3cc(cc(C)n3)C(=O)/N=C/1N2 [Example 252, (R,E)-N—((3R,4S)-1-(4-((R)-2,6-dioxopiperidin-3-yl)-3,5-difluorophenethyl)-3-methoxypiperidin-4-yl)-N,1^1,2^6,7-tetramethyl-3-oxo-5^2,5^3-dihydro-1^1H,5^1H-11-oxa-4-aza-5(2,1)-benzo[d]imidazola-2(2,4) -pyridina-1(4,5)-pyrazolacycloundecaphane-5^4-carboxamide] | 0.584 | 92.4 | 0.606 | 77.32
CO[C@@H]1CN(CCc2cc(F)c([C@H]3CCC(=O)NC3=O)c(F)c2)CC[C@H]1N(C)C(=O)c1ccc2c(c1)N1C[C@H](C)CCCOc3c(cnn3C)-c3cc(cc(C)n3)C(=O)/N=C/1N2 [Example 254, (R,E)-N—((3R,4R)-1-(4-((R)-2,6-dioxopiperidin-3-yl)-3,5-difluorophenethyl)-3-methoxypiperidin-4-yl)-N,1^1,2^6,7-tetramethyl-3-oxo-5^2,5^3-dihydro-1^1H,5^1H-11-oxa-4-aza-5(2,1)-benzo[d]imidazola-2(2,4) -pyridina-1(4,5)-pyrazolacycloundecaphane-5^6-carboxamide] | 0.91 | 91.2 | 0.624 | 86.3
CO[C@H]1CN(CCc2cc(F)c([C@H]3CCC(=O)NC3=O)c(F)c2)CC[C@H]1N(C)C(=O)c1ccc2c(c1)N1C[C@H](C)CCCOc3c(cnn3C)-c3cc(cc(C)n3)C(=O)/N=C/1N2 [Example 255, (R,E)-N—((3S,4R)-1-(4-((R)-2,6-dioxopiperidin-3-yl)-3,5-difluorophenethyl)-3-methoxypiperidin-4-yl)-N,1^1,2^6,7-tetramethyl-3-oxo-5^2,5^3-dihydro-1^1H,5^1H-11-oxa-4-aza-5(2,1)-benzo[d]imidazola-2(2,4) -pyridina-1(4,5)-pyrazolacycloundecaphane-5^6-carboxamide] | 0.599 | 91.1 | 0.566 | 81.82
Cc1cc2cc(n1)-c1cnn(C)c1OCCC[C@@H](C)CN1/C(=N/C2=O)Nc2ccc(C(=O)N(C)[C@@H]3CCN(CCc4cc(F)c([C@H]5CCC(=O)NC5=O)c(F)c4)C[C@H]3C)cc21 [Example 257, (R,E)-N—((3R,4R)-1-(4-((R)-2,6-dioxopiperidin-3-yl)-3,5-difluorophenethyl)-3-methylpiperidin-4-yl)-N,1^1,2^6,7-tetramethyl-3-oxo-5^2,5^3-dihydro-1^1H,5^1H-11-oxa-4-aza-5(2,1)-benzo[d]imidazola-2(2,4)-pyridina-1(4,5)-pyrazolacycloundecaphane-5^6-carboxamide] | 0.512 | 88 | 0.57 | 80.82
Cc1cc2cc(n1)-c1cnn(C)c1OCCC[C@@H](C)CN1/C(=N/C2=O)Nc2ccc(C(=O)N(C)[C@H]3CCN(CCc4cc(F)c([C@H]5CCC(=O)NC5=O)c(F)c4)[C@H](C)C3)cc21 [Example 259, (R,E)-N—((2R,4S)-1-(4-((R)-2,6-dioxopiperidin-3-yl)-3,5-difluorophenethyl)-2-methylpiperidin-4-yl)-N,1^1,2^6,7-tetramethyl-3-oxo-5^2,5^3-dihydro-1^1H,5^1H-11-oxa-4-aza-5(2,1)-benzo[d]imidazola-2(2,4)-pyridina-1(4,5)-pyrazolacycloundecaphane-5^6-carboxamide] | 0.841 | 89.2 | 0.725 | 83.21
Cc1cc2cc(n1)-c1cnn(C)c1OCCC[C@@H](C)CN1/C(=N/C2=O)Nc2ccc(C(=O)N[C@@H]3CCN(CCc4cc(F)c([C@H]5CCC(=O)NC5=O)c(F)c4)CC3(F)F)cc21 [Example 260, (R,E)-N—((R)-1-(4-((R)-2,6-dioxopiperidin-3-yl)-3,5-difluorophenethyl)-3,3-difluoropiperidin-4-yl)-1,2^6,7-trimethyl-3-oxo-5^2,5^3-dihydro-1^1H,5^1H-11-oxa-4-aza-5(2,1)-benzo[d]imidazola-2(2,4)-pyridina-1(4,5)-pyrazolacycloundecaphane-5^6-carboxamide] | 0.544 | 94 | 0.633 | 86.51
Cc1cc2cc(n1)-c1cnn(C)c1OCCC[C@@H](C)CN1/C(=N/C2=O)Nc2ccc(C(=O)N[C@H]3CCN(CCc4cc(F)c([C@H]5CCC(=O)NC5=O)c(F)c4)CC3(C)C)cc21 [Example 261, (R,E)-N—((S)-1-(4-((R)-2,6-dioxopiperidin-3-yl)-3,5-difluorophenethyl)-3,3-dimethylpiperidin-4-yl)-1^1,2^6,7-trimethyl-3-oxo-5^2,5^3-dihydro-1^1H,5^1H-11-oxa-4-aza-5(2,1)-benzo[d]imidazola-2(2,4)-pyridina-1(4,5)-pyrazolacycloundecaphane-5^6-carboxamide] | 0.51 | 91.8 | 0.621 | 83.61
Cc1cc2cc(n1)-c1cnn(C)c1OCCC[C@@H](C)CN1/C(=N/C2=O)Nc2ccc(C(=O)N(C)[C@@H]3CCN(CCc4cc(F)c([C@H]5CCC(=O)NC5=O)c(F)c4)CC3(C)C)cc21 [Example 262, (R,E)-N—((R)-1-(4-((R)-2,6-dioxopiperidin-3-yl)-3,5-difluorophenethyl)-3,3-dimethylpiperidin-4-yl)-N,1^1,2^6,7-tetramethyl-3-oxo-5^2,5^3-dihydro-1^1H,5^1H-11-oxa-4-aza-5(2,1)-benzo[d]imidazola-2(2,4)-pyridina-1(4,5)-pyrazolacycloundecaphane-5^6-carboxamide] | 0.543 | 84.2 | 0.474 | 76.44
Cc1cc2cc(n1)-c1cnn(C)c1OCCC[C@@H](C)CN1/C(=N/C2=O)Nc2ccc(C(=O)N[C@@H]3C[C@H]4CC[C@@H](C3)N4CCc3cc(F)c([C@H]4CCC(=O)NC4=O)c(F)c3)cc21 [Example 264, (R,E)-N—((1R,3S,5S)-8-(4-((R)-2,6-dioxopiperidin-3-yl)-3,5-difluorophenethyl)-8-azabicyclo[3.2.1]octan-3-yl)-1^1,2^6,7-trimethyl-3-oxo-5^2,5^3-dihydro-1^1H,5^1H-11-oxa-4-aza-5(2,1)-benzo[d]imidazola-2(2,4)-pyridina-1(4,5)-pyrazolacycloundecaphane-5^6-carboxamide] | 0.546 | 89.8 | 0.677 | 68.8

Compounds with a lower DC50 [1], results first:

DC50 [1] [nM] | Dmax [1] [%] | DC50 [2] [nM] | SMILES | Dmax (%) [2] [%]
0.381 | 88.2 | 0.577 | Cc1cc2cc(n1)-c1cnn(C)c1OCCC[C@@H](C)CN1/C(=N/C2=O)Nc2ccc(C(=O)N(C)[C@@H]3CCN(CCc4cc(F)c([C@H]5CCC(=O)NC5=O)c(F)c4)[C@@H](C)C3)cc21 [Example 258, (R,E)-N—((2S,4R)-1-(4-((R)-2,6-dioxopiperidin-3-yl)-3,5-difluorophenethyl)-2-methylpiperidin-4-yl) -N,1^1,2^6,7-tetramethyl-3-oxo-5^2,5^3-dihydro-1^1H,5^1H-11-oxa-4-aza-5(2,1)-benzo[d]imidazola-2(2,4)-pyridina-1(4,5)-pyrazolacycloundecaphane-5^6-carboxamide] | 81.96
0.351 | 93.6 | 0.597 | Cc1cc2cc(n1)-c1cnn(C)c1OCCC[C@@H](C)CN1/C(=N/C2=O)Nc2ccc(C(=O)N[C@@H]3CCN(CCc4cc(F)c([C@H]5CCC(=O)NC5=O)c(F)c4)CC3(C)C)cc21 [Example 263, (R,E)-N—((R)-1-(4-((R)-2,6-dioxopiperidin-3-yl)-3,5-difluorophenethyl)-3,3-dimethylpiperidin-4-yl)-1^1,2^6,7-trimethyl-3-oxo-5^2,5^3-dihydro-1H,5^1H-11-oxa-4-aza-5(2,1)-benzo[d]imidazola-2(2,4)-pyridina-1(4,5)-pyrazolacycloundecaphane-5^6-carboxamide] | 78.67
0.326 | 88.1 | 0.608 | Cc1cc2cc(n1)-c1cnn(C)c1OCCC[C@@H](C)CN1/C(=N/C2=O)Nc2ccc(C(=O)N(C)[C@H]3CCN(CCc4cc(F)c([C@H]5CCC(=O)NC5=O)c(F)c4)C[C@H]3C)cc21 [Example 256, (R,E)-N-((3R,4S)-1-(4-((R)-2,6-dioxopiperidin-3-yl)-3,5-difluorophenethyl)-3-methylpiperidin-4-yl) -N,1^1,2^6,7-tetramethyl-3-oxo-5^2,5^3-dihydro-1^1H,5^1H-11-oxa-4-aza-5(2,1)-benzo[d]imidazola-2(2,4)-pyridina-1(4,5)-pyrazolacycloundecaphane-5^6-carboxamide] | 83.08
0.289 | 93.8 | 0.59 | CO[C@@H]1CN(CCc2cc(F)c([C@H]3CCC(=O)NC3=O)c(F)c2)CC[C@H]1NC(=O)c1ccc2c(c1)N1C[C@H](C)CCCOc3c(cnn3C)-c3cc(cc(C)n3)C(=O)/N=C/1N2 [Example 253, (R,E)-N—((3R,4R)-1-(4-((R)-2,6-dioxopiperidin-3-yl)-3,5-difluorophenethyl)-3-methoxypiperidin-4-yl)-1^1,2^6,7-trimethyl-3-oxo-5^2,5^3-dihydro-1^1H,5^1H-11-oxa-4-aza-5(2,1)-benzo[d]imidazola-2(2,4)-pyridina-1(4,5)-pyrazolacycloundecaphane-5^6-carboxamide] | 82.5

— patent US20240342292A1, “Compounds for the Degradation of EGFR Kinase” (BeiGene Switzerland GmbH, priority 2021, published 2024)
